# Source: PMC11490426, “Structure-activity relationship of amino acid analogs to probe the binding pocket of sodium-coupled neutral amino acid transporter SNAT2” (Amino Acids, 2024)
# Where a name gives a salt, the structure may show the parent alone.
# Key:
# SNAT2 [1] = biological target: T1, SNAT2 (Homo sapiens, UniProt Q96QD8); assay: Inhibition of SNAT2-mediated 3H-glycine uptake in hyperosmotically treated PC-3 cells; type: cell-based
# T1 construct: hyperosmotically treated PC-3 cells, known to upregulate SNAT2; endogenous in cells; host or cells: PC-3 prostate cells exposed to hyperosmotic medium for 24 h
# T1 sequence (Q96QD8 1-506): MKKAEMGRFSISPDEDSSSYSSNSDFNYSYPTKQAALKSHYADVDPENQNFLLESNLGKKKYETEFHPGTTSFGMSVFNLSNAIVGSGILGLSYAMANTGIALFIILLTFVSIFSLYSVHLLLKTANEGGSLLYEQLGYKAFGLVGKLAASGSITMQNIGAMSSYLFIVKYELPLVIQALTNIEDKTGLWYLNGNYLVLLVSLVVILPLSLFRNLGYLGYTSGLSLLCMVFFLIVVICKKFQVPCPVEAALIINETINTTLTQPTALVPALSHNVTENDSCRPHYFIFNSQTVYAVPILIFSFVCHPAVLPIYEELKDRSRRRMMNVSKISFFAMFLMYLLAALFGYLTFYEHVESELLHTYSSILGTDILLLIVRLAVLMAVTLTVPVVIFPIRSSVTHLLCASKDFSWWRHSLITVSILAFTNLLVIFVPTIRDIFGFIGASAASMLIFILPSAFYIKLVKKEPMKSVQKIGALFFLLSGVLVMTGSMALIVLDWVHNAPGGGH
# Protocol: Where Y is the % uptake, X is the concentration of the inhibitor, Top and Bottom are the top and bottom plateau respectively, and IC50 is the half maximal inhibitory concentration. These studies were performed in at least 3 independent cell passages (n = 3) and a curve was defined for each independent passage. However, for each compound, the top and bottom were constrained to be the same amongst the different cell passages.
# SNAT2 [2] = biological target: T1, SNAT2; assay: FLIPR membrane potential (FMP) assay in PC-3 cells; type: cell-based; settings: hyperosmotically treated PC-3 cells
# Protocol: PC-3 cells exposed to hyperosmotic media for 24 h were used to identify SNAT2 substrates in the FMP assay. The media was aspirated, and the cells were preincubated in HBSS + for 10 min at 37 °C and 220 rpm. Then the buffer was aspirated, and cells were then incubated in 50 µL HBSS + containing 0.55 mg ⋅ mL^− 1 (1x) FMP probe (Blue component A from Molecular Devices, San Jose, CA, USA) for 30 min at 37 °C and 220 rpm. […] First, the baseline was measured for 30 s by measuring each well every 3 s. The plate was then removed from the reader and 50 µL of substrate solutions containing 0.55 mg ⋅ mL^− 1 FMP probe was added. These solutions were prepared by mixing equal parts solution containing 2x FMP probe and solutions containing 4x the final concentration of substrate. […] Following this, the baseline of the next column was measured and followed the same procedure as just described.
# For the FMP data, the baseline was defined as the mean fluorescence of the first data point before substrate addition. The baseline of each well was then subtracted from the data point to get the ΔF. Plotting ΔF as a function of time and calculating the area under the curve (AUC) after substrate addition was used as a measure of SNAT2 activity.
# SNAT2 [3] = biological target: T1, SNAT2; assay: Intracellular amino acids and analogs quantified by OPA derivatization and HPLC-Fl after uptake in PC-3 cells; type: cell-based; settings: 0.4 mM compound, 30 min uptake, pH 7.4
# Protocol: Derivatization of AAs and analogs using o-phthalaldehyde (OPA) and 2-mercaptoethanol (2-ME) to make fluorescent derivatives was used to measure the intracellular amounts of AAs and analogs following uptake in hyperosmotically treated PC-3 cells. Before starting the experiment, the medium was aspirated, and the cells were preincubated in HBSS + for 15 min at 37 °C and 220 rpm. The cells were then incubated with 500 µL HBSS+ (background) or HBSS + containing AAs or analogs at given concentrations for 30 min at 37 °C and 220 rpm. After aspirating the donor solutions, the cells were washed thrice with 500 µL of ice-cold PBS while keeping the cells on ice. 200 µL of ice-cold 1x-trypsin was added to each well and allowed to distribute for 20–30 min while keeping the cells on ice. The plate was then transferred to an incubating microplate shaker at 37 °C and 220 rpm for about 8 min or until the cells had detached. 300 µL of ice-cold PBS was added to each well to resuspend the cells and transfer them to centrifuge tubes. The cells were centrifuged at 1000 G for 5 min (4 °C), the supernatant was removed, the cells were resuspended in 300 µL ice-cold PBS, and then centrifuged again at 1000 G for 5 min (4 °C). After removing the supernatant, the cell pellet was lysed by adding 100 µL of 80% methanol (20% ultrapure water) and placing the tubes in an ultrasonic bath for 10 min. The tubes were then centrifuged at 15,000 G for 15 min (4 °C) and the resulting supernatant was used for analysis.
# The OPA reagent was prepared by spiking with 2 µL 2-ME per mL of OPA regent and was considered stable for use within one day. 10 µL of the cell samples or standards containing a mixture of the AAs and analogs of interest were placed in HPLC vials with 100 µL inserts. […] The autosampler kept the samples at 10 °C and the pretreatment function was used to automatically mix the samples with 10 µL of the OPA reagent and wait 4 min before loading 2 µL onto a YMC-Triart C18 column (75 × 3.0 mm, 1.9 μm, Mikrolab Aarhus, Viby J, Denmark). […] The fluorescence detector was set to excite at 350 nm and detect at 450 nm.
# The resulting chromatograms were integrated and the area under the curve (AUC) of the standard samples was used to generate standard curves to determine the concentration of AAs and analogs in the cell samples. […] Amino acid levels detected in the background cell samples were subtracted from the other cell samples.
# PC-3 cells = assay: CellTiter-Glo viability assay; type: cell-based, human; settings: 20 mM, after 10 min of exposure, hyperosmotically treated PC-3 cells
# Protocol: ^3H-glycine uptake in hyperosmotically treated PC-3 cells was performed as previously described (Jakobsen et al. [2023]). 5-minute uptake of 0.5 µCi ⋅ mL^− 1 3H-glycine (11.1 nM) was used, and each uptake was normalized to the uptake obtained in a control situation (31.2 ± 5.7 fmol ⋅ cm^− 2 ⋅ min^− 1) without subtracting the background uptake (2.62 ± 0.67 fmol ⋅ cm^− 2 ⋅ min^− 1). Compounds that inhibited uptake by more than 20% at the highest tested concentrations were tested in the CellTiter-Glo viability assay (Promega, Madison, WI, USA), to rule out that the observed inhibition was not caused by reduced cell viability (Fig. S1 in Supplementary Information SI).
# Fig. S1 Cell viability of hyperosmotically treated PC-3 cells after 10 min incubation with various amino acids and analogs using the CellTiter-Glo assay. […] The plate was placed in a CLARIOstar® Plus plate reader from BMG LABTECH (Ortenberg, Germany) at room temperature and was then shaken for 2 minutes at 220 rpm. Luminescence was measured after 0, 5, 10, and 15 minutes. Background luminescence (obtained from adding CellTiter-Glo reagent to HBSS+ containing wells without cells) was subtracted from the sample luminescence and normalized to control wells only exposed to HBSS+ to determine the % viability. […] Statistically significant differences from the control detected by one-way ANOVA are shown (*: p < 0.05).
# [4] = Stability in aqueous solution by HPLC-UV; type: physicochemical; settings: 1 mM in ultrapure water, room temperature, over 3 days
# Excerpt: The resulting chromatograms were integrated and the area under the curve (AUC) of the standard samples was used to generate standard curves to determine the concentration of AAs and analogs in the cell samples. The pooled standard curves and example chromatograms can be seen in the SI (Figs. S2, S3). Amino acid levels detected in the background cell samples were subtracted from the other cell samples. L-Alanine benzyl ester only generated a peak with an equal retention time as L-alanine. It was assessed that the addition of OPA reagent increased the hydrolysis of the ester, thus only creating the L-alanine OPA derivative. […] Thus, the L-alanine peak was used to measure the presence of L-alanine benzyl ester in samples.
# Fig. S4 HPLC-UV chromatograms of L-alanine benzyl ester and benzyl alcohol dissolved in ultrapure water. The samples were analyzed using a Waters 2695 HPLC system connected to a Waters 2487 Dual λ Absorbance Detector (Waters Corporation, MA, USA). The peaks were separated using a Sunfire C18 column (4.6 x 150 mm, 3.5 µm, Waters Corporation, MA, USA) at 45 °C and with a 0.7 ml/min flow of 70% mobile phase A (90/10% H2O/MeCN + 0.1% trifluoroacetic acid (TFA)) and 30% mobile phase B (10/90% H2O/MeCN + 0.1% TFA). 10 µL samples were injected and the peaks were detected at 254 nm. […]
compound,measurement,setting,value
"C[C@H](N)C(=O)OCc1ccccc1 [L-Alanine benzyl ester, L-alanine benzyl ester hydrochloride]",IC50,"SNAT2 [1]; hyperosmotically treated PC-3 cells, 5 min uptake of 11.1 nM 3H-glycine, pH 7.4, read-out: IC50",390 µM
same,inhibition of 3H-glycine uptake at different pH levels,"SNAT2 [1]; pH 6.8, 7.4 and 8.0, 0.4 mM L-alanine benzyl ester or 0.2 mM L-alanine, two-way ANOVA",no significant differences in inhibition at the different pH levels
same,AUC of fluorescence response-time curve,SNAT2 [2]; 5 mM compound,8.1 ± 1.4 10^5 RFU ∙ s
same,AUC of fluorescence response-time curve,SNAT2 [2]; 10 mM compound,-1.4 ± 3.2 10^5 RFU ∙ s
same,"AUC, % of 10 mM L-alanine",SNAT2 [2]; 10 mM compound,-6.6 ± 14%
same,response in the FMP assay (stimulation of SNAT2 activity),SNAT2 [2]; result in words,little or no stimulation of SNAT2 activity
same,fold change of intracellular accumulation in absence vs presence of 10 mM L-glutamine,SNAT2 [3],6.7 fold
same,decrease in cell viability,PC-3 cells,23%
same,stability in aqueous solution,[4],stability was confirmed
